How the values were obtained:
Format in all cases: cell-based
[1] = tested on: full thickness human skin; assay: Skin pigmentation in full thickness human skin organ culture; conditions: beta arbutin 1% vs vehicle, day 6 of organ culture
Source text: FIG. 2(A) depicts human skin treated with beta arbutin 1% vs negative control (“vehicle”) at day 6 of organ culture.
Beta arbutin (hydroquinone glucoside), a recognized inhibitor of tyrosinase, has been selected as positive control for skin lightening.

pig skin samples = assay: Skin pigmentation (melanin, Fontana-Masson staining) in pig skin organ culture; conditions: Pietrain dorsal pig skin, 1% w/v topical, re-applied daily
Description: For this experiment, full thickness pig skin has been excised from dorsal part of a pig with 30±5 follicles/cm^2 (age: 8 weeks; weight: 24 kg). The skin samples have been cut under sterile condition in smaller pieces (surface: 4×4; thickness: 3 mm) and placed in a 6 wells plate (two samples per well) over a sterilized cotton immerse in 5 ml of culture medium, incubated at 37° C., 5% CO2, 100% humidity, as described above. Culture medium has been renewed every other day.
Thus, 10 μl of beta arbutin (1% w/v in culture medium) per sample has been added topically and re-applied daily. As negative control, culture medium has been applied topically by following the same experimental procedures as for beta-arbutin. Six pig skin samples have been used for each treatment (i.e. beta arbutin and culture medium).
The pig skin samples were incubated for either 2 or 6 days respectively.
Following organ culture procedure, skin samples have been embedded in cryomedium by using liquid nitrogen. […]
The amount of melanin present in each slide has been evaluated by measuring the areas covered by the black spots, by using the software ImageJ (National Institute of Health, US). […]
The data from all samples of the same experimental group have been pooled and the means ±SEM calculated. The statistical significance (P-value) was been determined by Mann-Whitney U test for nonparametric samples. […]

[2] = tested on: hair follicle matrix cells in pig skin organ culture; assay: Hair follicle matrix cell proliferation (Ki67/DAPI double staining) in pig skin organ culture; conditions: 25 ng/ml in culture medium
Description: For this experiment, full thickness skin samples had been excised from dorsal part of a pig with 30±5 follicles/cm^2 (age: 8 weeks; weight: 22 kg).
As a consequence, changes in the proliferation rate of hair follicles matrix cells have been investigated in pig skin organ culture following incubation with recognized modulators of hair growth.
Two different experimental procedures have been investigated:
I. In the first experiment, the pig skin samples had been incubated with the potential modulators from day 0 to day 6.
II. In the second experiment, the skin had been kept in culture until day 14. Then, the skin has been incubated with the potential modulators up day 21.
Following the organ culture procedure, skin samples had been embedded in cryomedium by using liquid nitrogen. Embedded samples had been cut in thin slides (thickness: 7 μm) and were then immunolabelled by performing Ki67/DAPI double staining to detect proliferative cells localized on the bulb region. In particular, while Ki67 labels proliferating cells, DAPI stains all cell nuclei. Quantitative analysis has been performed by using a custom modified version of the software ImageJ (National Institute of Health, US). The data from all samples of the same experimental group have been pooled and the means ±SEM calculated. The statistical significance (P-value) has been determined by Mann-Whitney U test for nonparametric samples. […]

Molecule | inhibition of skin pigmentation [1] [%] | decrease of pigmentation in comparison to the negative control (pig skin samples; after 2 days) [%] | decrease of pigmentation in comparison to the negative control (pig skin samples; after 6 days) [%] | inhibition of hair matrix cell proliferation versus untreated control ([2]; incubated day 0 to day 6, read at day 6) [%] | inhibition of hair matrix cell proliferation versus untreated control ([2]; incubated day 14 to day 21, read at day 21) [%]
OC[C@H]1O[C@@H](Oc2ccc(O)cc2)[C@H](O)[C@@H](O)[C@@H]1O [beta arbutin, hydroquinone glucoside] | 31 | 52.4 | 44.2 |  | 
transforming growth factor beta 2 (protein, UniProt P61812 303-414, looked up) Transforming growth factor …: ALDAAYCFRNVQDNCCLRPLYIDFKRDLGWKWIHEPKGYNANFCAGACPYLWSSDTQHSRVLSLYNTINPEASASPCCVSQDLEPLTILYYIGKTPKIEQLSNMIVKSCKCS |  |  |  | 24.8 | 36.1

Source: patent publication US20080138850A1, “Skin Model” (SYMRISE GmbH & Co. KG, priority 2006, published 2008)
